{
  "source": "patent US20240019450A1",
  "about": "“FLUORESCENT SENSORS” (THE UNIVERSITY OF SYDNEY, priority 2020, published 2024)",
  "data": [
    {"test": "not given", "units": {"melting point": "°C"}, "values": [
      {"smiles": "S=C(S)n1ncc2ccccc21", "note": "[formula X, 1H-indazole-1-carbodithioic acid]", "melting point": 220},
      {"smiles": "S=C(S)C1=C(NCc2ccccc2)CCC1", "note": "[formula XIV, 2-(benzylamino)cyclopent-1-enecarbodithioic acid]", "melting point": 100}
    ]},
    {"test": "Fluorescence spectroscopy of the sensors (excitation and emission)", "format": "physicochemical", "description": "Fluorescence spectroscopy was performed on a bench top Perkin-Elmer Enspire Multimode Plate Reader. […] 5 replicates of each sensor-metal or sensor-complex solution were used. […] Fluorescence responses to analytes were determined using integrated emission intensity, and for each sensor a control well containing no analyte was included to normalise the response for analysis.\nThe sensors were tested using the procedure described in Example 4, and the obtained data was analysed using LDA. […] Sensors S1-S9 were used in subsequent experiments.", "units": {"excitation wavelength (maximum excitation wavelength of the sensor)": "nm"}, "values": [
      {"smiles": "O=C1c2ccccc2C2(c3ccc(O)cc3Oc3cc(O)ccc32)N1NC(=S)S", "note": "[S1]", "excitation wavelength (maximum excitation wavelength of the sensor)": 480},
      {"smiles": "Cc1cc(=O)oc2c(CN(CC(=O)O)CC(=O)O)c(O)ccc12", "note": "[S5]", "excitation wavelength (maximum excitation wavelength of the sensor)": 380},
      {"smiles": "CCN(CC)c1ccc2c(c1)Oc1cc(N(CC)CC)ccc1C21c2ccccc2C(=O)N1OCc1cn(Cc2ccccc2)nn1", "note": "[S7]", "excitation wavelength (maximum excitation wavelength of the sensor)": 445},
      {"smiles": "O=[N+]([O-])c1ccc2c(/N=N/c3ccc4ccccc4c3O)c(O)cc(S(=O)(=O)[O-])c2c1.[Na+]", "note": "[S8]", "excitation wavelength (maximum excitation wavelength of the sensor)": 280},
      {"smiles": "O=S(=O)([O-])c1cc(O)c(N=Nc2c(O)ccc3ccccc23)c2ccccc12.[Na+]", "note": "[S9]", "excitation wavelength (maximum excitation wavelength of the sensor)": 280}
    ]}
  ]
}
